Measurements: patent US11013235B2 (priority 2015, dated 2021)
Where two headings read alike, the source gives them in different places.

Legend:
Type in all cases: in vivo
[1] = tested on: Botrytis cinerea; assay: Control of Botrytis cinerea disease in Arabidopsis (Bc-At); conditions: 1 μM spraying every 24 hours for one week, water control 8.7
Protocol: (§1) In order to compare the effect of the compounds of formula I to V on the control of diseases in different plants, experiments were conducted in tobacco, tomato and Arabidopsis thaliana plants inoculated with Phytophthora parasitica, Rhizoctonia solani, Alternaria solani, Nocardia sp and Botrytis cinerea, respectively. The compounds were applied by spraying, at a concentration of 1 μM, every 24 hours for one week. The plant mortality rate was determined for the disease produced by Phytophthora parasitica, Rhizoctonia solani and Nocardia sp, while the percentage of leaves with symptoms was determined for the infection by Alternaria solani. In the case of plants affected by Botrytis cinerea, the lesion diameter was measured. […] Each treatment included fifty plants. As control, plants treated with water were studied. The plants of each treatment were previously inoculated with the indicated pathogens, according to different inoculation protocols (Frontiers in Plant Science 3: 268, 1-6, 2012), and later they were treated with the compounds.

[2] = tested on: Botrytis cinerea; assay: Control of Botrytis cinerea disease in tomato (Bc-SI); conditions: 1 μM spraying every 24 hours for one week, water control 7.4
Protocol: as §1

[3] = tested on: Phytophthora parasitica; assay: Control of Phytophthora parasitica disease in tobacco (Pp-Nt); conditions: 1 μM spraying every 24 hours for one week, water control 91
Protocol: as §1

[4] = tested on: Pratylenchus coffeae; assay: Nematode control, nodules per plant: Pratylenchus coffeae; conditions: 1 μM foliar application every 5 days, evaluation 35 days after, control 42
Protocol: (§2) The solutions of the compounds were prepared in ethanol and diluted in water, up to a concentration of 1 μM for a foliar application. Applications were conducted every 5 days, spraying only the leafs with each compound. Ten plants were used for each treatment and the final evaluation was performed 35 days after, by quantifying the number of nodules per plant.

[5] = tested on: Nocardia sp; assay: Control of Nocardia sp disease in tobacco (N-Nt); conditions: 1 μM spraying every 24 hours for one week, water control 58
Protocol: as §1

[6] = tested on: Rhizoctonia solani; assay: Control of Rhizoctonia solani disease in tomato (Rs-SI); conditions: 1 μM spraying every 24 hours for one week, water control 96
Protocol: as §1

[7] = tested on: Meloidogyne incognita; assay: Nematode control, nodules per plant: Meloidogyne incognita; conditions: 1 μM foliar application every 5 days, evaluation 35 days after, control 34
Protocol: as §2

[8] = tested on: Candidatus 'Liberibacter asiaticus'; conditions: spraying every 15 days, 12 months after treatment, Citrus sinensis with HLB
[9] = tested on: Botrytis cinerea; assay: Control of Botrytis cinerea disease in tobacco (Bc-Nt); conditions: 1 μM spraying every 24 hours for one week, water control 6.7
Protocol: as §1

[10] = tested on: Radopholus similis; assay: Nematode control, nodules per plant: Radopholus similis; conditions: 1 μM foliar application every 5 days, evaluation 35 days after, control 45
Protocol: as §2

[11] = tested on: Alternaria solani; assay: Control of Alternaria solani disease in tomato (As-SI); conditions: 1 μM spraying every 24 hours for one week, water control 68
Protocol: as §1

[12] = tested on: Rhizoctonia solani; assay: Control of Rhizoctonia solani disease in tobacco (Rs-Nt); conditions: 1 μM spraying every 24 hours for one week, water control 87
Protocol: as §1

Row | Structure (SMILES) | Bc-At: mean of the diameter of the lesion [1] | Bc-SI: mean of the diameter of the lesion [2] | Pp-Nt: percentage of mortality [3] | Pc: number of nodules per plant [4] | N-Nt: percentage of mortality [5] | Rs-SI: percentage of mortality [6] | Mi: number of nodules per plant [7] | Titers of the bacterium ([8]; 0.001 μM) | Titers of the bacterium ([8]; 0.01 μM) | Titers of the bacterium ([8]; 1 μM) | Titers of the bacterium ([8]; 5 μM) | Titers of the bacterium ([8]; 10 μM) | Bc-Nt: mean of the diameter of the lesion [9] | Rs: number of nodules per plant [10] | As-SI: percentage of leaves with the disease symptoms [11] | Rs-Nt: percentage of mortality [12]
1 | CN1CCN(c2ncc(C(=O)N3CC4CC(O)C(O)CC4C3)cn2)CC1 (centres unmarked) [IIIA, 2-{[2-(4-methylpiperazin-1-yl)pyrimidin-5-yl]carbonyl}-octahydro-1H-isoindole-5,6-diol] | 2.4 mm | 0.8 mm | 1% | 16 | 1% | 3% | 2 | 432 copies per reaction | 0 copies per reaction | 0 copies per reaction | 43 copies per reaction | 2365 copies per reaction | 1.5 mm | 11 | 1% | 2%
2 | Cc1nc(N2CCN(C)CC2)ncc1C(=O)N1CC2CC(O)C(O)CC2C1 (centres unmarked) [IIIB, 2-{[4-methyl-2-(4-methylpiperazin-1-yl)pyrimidin-5-yl]carbonyl}-octahydro-1H-isoindole-5,6-diol] | 0.7 mm | 1.2 mm | 2% | 16 | 1% | 2% | 3 | 123 copies per reaction | 0 copies per reaction | 0 copies per reaction | 23 copies per reaction | 8546 copies per reaction | 0.9 mm | 2 | 2% | 3%
3 | O=C(c1cnc(N2CCN(c3ccccc3)CC2)nc1)N1CC2CC(O)C(O)CC2C1 (centres unmarked) [IIIC, 2-{[2-(4-phenylpiperazin-1-yl)pyrimidin-5-yl]carbonyl}-octahydro-1H-isoindole-5,6-diol] | 1.2 mm | 0.8 mm | 1% | 2 | 2% | 2% | 4 | 587 copies per reaction | 0 copies per reaction | 0 copies per reaction | 87 copies per reaction | 3654 copies per reaction | 0.3 mm | 14 | 3% | 4%
4 | Cc1nc(N2CCN(c3ccccc3)CC2)ncc1C(=O)N1CC2CC(O)C(O)CC2C1 (centres unmarked) [IIID, 2-{[4-methyl-2-(4-phenylpiperazin-1-yl)pyrimidin-5-yl]carbonyl}-octahydro-1H-isoindole-5,6-diol] | 1.1 mm | 1.6 mm | 0% | 18 | 1% | 2% | 0 | 985 copies per reaction | 1 copies per reaction | 0 copies per reaction | 98 copies per reaction | 9653 copies per reaction | 2.0 mm | 0 | 8% | 0%
5 | O=C(c1cnc(N2CCN(C3CCCCC3)CC2)nc1)N1CC2CC(O)C(O)CC2C1 (centres unmarked) [IIIE, 2-{[2-(4-cyclohexylpiperazin-1-yl)pyrimidin-5-yl]carbonyl}-octahydro-1H-isoindole-5,6-diol] | 0.5 mm | 0.8 mm | 0% | 0 | 0% | 0% | 0 | 657 copies per reaction | 7 copies per reaction | 0 copies per reaction | 67 copies per reaction | 8653 copies per reaction | 0.9 mm | 0 | 7% | 0%
6 | Cc1nc(N2CCN(C3CCCCC3)CC2)ncc1C(=O)N1CC2CC(O)C(O)CC2C1 (centres unmarked) [IIIF, 2-{[2-(4-cyclohexylpiperazin-1-yl)-4-methylpyrimidin-5-yl]carbonyl}-octahydro-1H-isoindole-5,6-diol] | 1.5 mm | 2.5 mm | 0% | 0 | 0% | 1% | 0 | 658 copies per reaction | 5 copies per reaction | 4 copies per reaction | 68 copies per reaction | 3654 copies per reaction | 1.5 mm | 0 | 5% | 0%
7 | O=C(c1cnc(N2CCN(C3CCCC3)CC2)nc1)N1CC2CC(O)C(O)CC2C1 (centres unmarked) [IIIG, 2-{[2-(4-cyclopentylpiperazin-1-yl)pyrimidin-5-yl]carbonyl}-octahydro-1H-isoindole-5,6-diol] | 2.4 mm | 0.8 mm | 3% | 0 | 0% | 1% | 0 | 756 copies per reaction | 12 copies per reaction | 5 copies per reaction | 76 copies per reaction | 9654 copies per reaction | 1.5 mm | 3 | 7% | 0%
8 | Cc1nc(N2CCN(C3CCCC3)CC2)ncc1C(=O)N1CC2CC(O)C(O)CC2C1 (centres unmarked) [IIIH, 2-{[2-(4-cyclopentylpiperazin-1-yl)-4-methylpyrimidin-5-yl]carbonyl)-octahydro-1H-isoindole-5,6-diol] | 0.7 mm | 1.2 mm | 1% | 16 | 1% | 3% | 2 | 456 copies per reaction | 15 copies per reaction | 6 copies per reaction | 56 copies per reaction | 3657 copies per reaction | 0.9 mm | 14 | 1% | 2%
